Measured values taken from patent publication US8148391B2 (Cephalon, Inc., priority 2006, dated 2012).
Read-outs that look alike come from different tables or passages of the source.

How the values were obtained:
[1] = molecular target: T1, baculovirus-expressed ALK (Homo sapiens, UniProt Q9UM73); experiment: ALK Kinase Assay (ELISA-type, time-resolved fluorescence); format: biochemical; conditions: 1 μM ATP (Km level); read-out: ALK Activity (ALK Kinase Inhibition, IC50)
T1 construct: host or cells: baculovirus expression system
How it was run: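 Wells were coated with phospholipase C-γ at 10 μg/mL in Tris-buffered saline. Adding 30 ng/ml enzyme started the reaction, which ran at 37° C for 15 minutes before Eu-N1 PT66 antibody detection. Percent inhibition versus log10 concentration gave IC50 by variable-slope fit.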

[2] = molecular target: T2, c-Met (cytoplasmic domain) (Homo sapiens, UniProt P08581); experiment: c-Met Kinase Assay (same methods as for ALK, with modifications); format: biochemical; conditions: 1 μM ATP (Km level)
T2 construct: 10 ng/mL c-Met (cytoplasmic domain, Invitrogen Corporation #PV3143); purchased Invitrogen Corporation PV3143
How it was run: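 IC50 values were fitted by variable-slope sigmoidal regression of percent inhibition against log compound concentration. Phosphorylation was read with Eu-N1 PT66 antibody after a 15 min, 37 °C reaction. The reaction was initiated with 10 ng/mL c-Met cytoplasmic domain on wells coated with 10 μg/mL PLC-γ in TBS.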

[3] = read-out: cMet Activity (c-Met Kinase Inhibition, IC50)

T2 sequence (P08581 956-1390 limits assumed): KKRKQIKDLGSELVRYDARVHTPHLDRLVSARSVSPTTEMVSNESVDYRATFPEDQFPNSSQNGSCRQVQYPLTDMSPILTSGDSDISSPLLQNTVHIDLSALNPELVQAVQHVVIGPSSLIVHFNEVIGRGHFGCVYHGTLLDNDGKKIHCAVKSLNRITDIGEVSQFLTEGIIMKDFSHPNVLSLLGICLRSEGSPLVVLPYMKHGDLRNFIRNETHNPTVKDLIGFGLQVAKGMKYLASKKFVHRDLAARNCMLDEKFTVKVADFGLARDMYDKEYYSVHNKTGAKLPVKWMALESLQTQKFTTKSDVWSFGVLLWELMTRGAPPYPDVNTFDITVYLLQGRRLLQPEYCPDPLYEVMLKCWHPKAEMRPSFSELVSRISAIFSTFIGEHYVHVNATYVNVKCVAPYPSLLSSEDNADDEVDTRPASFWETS
T1 sequence (Q9UM73 19-1620): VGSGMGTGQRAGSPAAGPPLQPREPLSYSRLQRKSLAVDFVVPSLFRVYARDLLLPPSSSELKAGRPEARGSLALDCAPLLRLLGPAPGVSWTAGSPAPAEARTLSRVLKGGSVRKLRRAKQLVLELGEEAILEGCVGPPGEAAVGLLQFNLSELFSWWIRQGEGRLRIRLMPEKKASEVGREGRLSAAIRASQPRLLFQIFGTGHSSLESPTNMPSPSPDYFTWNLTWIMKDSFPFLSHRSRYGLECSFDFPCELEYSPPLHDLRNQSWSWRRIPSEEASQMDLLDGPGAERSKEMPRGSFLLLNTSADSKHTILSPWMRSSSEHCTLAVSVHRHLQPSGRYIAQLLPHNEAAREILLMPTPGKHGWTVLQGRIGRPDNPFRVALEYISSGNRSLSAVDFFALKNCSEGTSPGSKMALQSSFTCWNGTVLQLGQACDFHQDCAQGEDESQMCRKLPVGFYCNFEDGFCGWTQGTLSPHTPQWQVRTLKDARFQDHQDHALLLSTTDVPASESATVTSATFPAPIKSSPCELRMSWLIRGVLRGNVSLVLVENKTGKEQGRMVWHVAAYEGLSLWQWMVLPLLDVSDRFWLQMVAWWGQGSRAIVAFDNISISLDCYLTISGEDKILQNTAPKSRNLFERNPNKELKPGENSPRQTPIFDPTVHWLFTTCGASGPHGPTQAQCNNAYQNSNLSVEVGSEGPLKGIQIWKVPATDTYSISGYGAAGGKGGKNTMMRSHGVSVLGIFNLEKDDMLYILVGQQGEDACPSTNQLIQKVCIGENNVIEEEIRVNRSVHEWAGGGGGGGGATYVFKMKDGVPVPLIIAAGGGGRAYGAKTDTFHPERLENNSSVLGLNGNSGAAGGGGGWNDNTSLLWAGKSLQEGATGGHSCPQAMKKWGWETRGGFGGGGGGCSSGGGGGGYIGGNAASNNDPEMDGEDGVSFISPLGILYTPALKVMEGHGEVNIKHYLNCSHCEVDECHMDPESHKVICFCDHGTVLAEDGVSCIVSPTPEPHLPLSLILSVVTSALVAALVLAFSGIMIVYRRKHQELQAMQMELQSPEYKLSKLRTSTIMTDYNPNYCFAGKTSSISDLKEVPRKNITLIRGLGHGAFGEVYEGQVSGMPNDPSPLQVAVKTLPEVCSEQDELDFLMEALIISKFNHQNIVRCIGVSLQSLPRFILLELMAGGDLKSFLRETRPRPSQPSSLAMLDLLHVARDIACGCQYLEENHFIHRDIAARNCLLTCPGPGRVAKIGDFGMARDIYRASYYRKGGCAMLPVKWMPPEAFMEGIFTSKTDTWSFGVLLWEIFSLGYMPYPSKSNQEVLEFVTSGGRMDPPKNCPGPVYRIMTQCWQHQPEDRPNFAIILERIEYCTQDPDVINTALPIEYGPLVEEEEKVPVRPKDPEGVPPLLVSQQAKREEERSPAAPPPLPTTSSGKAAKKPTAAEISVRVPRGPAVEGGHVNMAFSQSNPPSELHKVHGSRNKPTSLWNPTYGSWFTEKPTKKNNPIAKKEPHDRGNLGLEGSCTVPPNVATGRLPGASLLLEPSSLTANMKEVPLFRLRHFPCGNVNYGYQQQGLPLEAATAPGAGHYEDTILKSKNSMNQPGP

Compound | IC50 [1] [nM] | IC50 ([2]; cMet Activity (c-Met Kinase Inhibition, IC50)) [nM] | IC50 [2, 3] [nM]
COc1c(Nc2ncc(Cl)c(N[C@H]3[C@@H](C(N)=O)[C@@H]4C=C[C@H]3C4)n2)ccc2c1CC[C@@H](N1CCOCC1)CC2 [Example 882, (1S,2S,3R,4R)-3-[5-Chloro-2-((S)-1-methoxy-7-morpholin-4-yl-6,7,8,9-tetrahydro-5H-benzocyclohepten-2-ylamino)-pyrimidin-4-ylamino]-bicyclo[2.2.1]hept-5-ene-2-carboxylic acid amide] | < 100 | > 10000 | –
COc1c(Nc2ncc(Cl)c(Nc3ccccc3S(=O)(=O)C(C)C)n2)ccc2c1CCC(N1CCOCC1)CC2 (stereo not shown) [Example 883, 5-Chloro-N*2*-(1-methoxy-7-morpholin-4-yl-6,7,8,9-tetrahydro-5H-benzocyclohepten-2-yl)-N*4*-[2-(propane-2-sulfonyl)-phenyl]-pyrimidine-2,4-diamine] | < 100 | – | 1000 to 10000
CC1(C)CCCOc2c(Nc3ncc(Cl)c(Nc4ccccc4-n4cccn4)n3)cccc21 [Example 885, 5-Chloro-N*2*-(5,5-dimethyl-2,3,4,5-tetrahydro-benzo[b]oxepin-9-yl)-N*4*-(2-pyrazol-1-yl-phenyl)-pyrimidine-2,4-diamine] | 100 to 1000 | – | > 10000
CN1CCN(C2CCN(C3CCc4ccc(Nc5ncc(Cl)c(N[C@@H]6CCCC[C@H]6NS(C)(=O)=O)n5)cc4CC3)CC2)CC1 (stereo partly drawn) [Example 886, N-[(1R,2R)-2-(5-Chloro-2-{7-[4-(4-methyl-piperazin-1-yl)-piperidin-1-yl]-6,7,8,9-tetrahydro-5H-benzocyclohepten-2-ylamino}-pyrimidin-4-ylamino)-cyclohexyl]-methanesulfonamide] | < 100 | – | 1000 to 10000
CN1CCN(C2CCN(C3CCc4ccc(Nc5ncc(Cl)c(N[C@H]6[C@@H](C(N)=O)[C@@H]7C=C[C@H]6C7)n5)cc4CC3)CC2)CC1 (stereo partly drawn) [Example 887, (1S,2S,3R,4R)-3-(5-Chloro-2-{7-[4-(4-methyl-piperazin-1-yl)-piperidin-1-yl]-6,7,8,9-tetrahydro-5H-benzocyclohepten-2-ylamino}-pyrimidin-4-ylamino)-bicyclo[2.2.1]hept-5-ene-2-carboxylic acid amide] | < 100 | – | 100 to 1000
CN1CCN(C2CCc3ccc(Nc4ncc(Cl)c(N[C@@H]5CCCC[C@H]5NS(C)(=O)=O)n4)cc3CC2)CC1 (stereo partly drawn) [Example 888, N-((1R,2R)-2-{5-Chloro-2-[7-(4-methyl-piperazin-1-yl)-6,7,8,9-tetrahydro-5H-benzocyclohepten-2-ylamino]-pyrimidin-4-ylamino}-cyclohexyl)-methanesulfonamide] | < 100 | – | 1000 to 10000
COc1c(Nc2ncc(Cl)c(Nc3ccccc3S(=O)(=O)N(C)C)n2)ccc2c1CCC(N1CCOCC1)CC2 (stereo not shown) [Example 889, 2-[5-Chloro-2-(1-methoxy-7-morpholin-4-yl-6,7,8,9-tetrahydro-5H-benzocyclohepten-2-ylamino)-pyrimidin-4-ylamino]-N,N-dimethyl-benzenesulfonamide] | < 100 | – | 1000 to 10000
CN1CCN(C2CCc3ccc(Nc4ncc(Cl)c(Nc5ccccc5S(=O)(=O)N(C)C)n4)cc3CC2)CC1 (stereo not shown) [Example 890, 2-{5-Chloro-2-[7-(4-methyl-piperazin-1-yl)-6,7,8,9-tetrahydro-5H-benzocyclohepten-2-ylamino]-pyrimidin-4-ylamino}-N,N-dimethyl-benzenesulfonamide] | < 100 | – | 100 to 1000
COc1ccccc1Nc1nc(Nc2ccc3c(c2)CCC(N2CCN(C)CC2)CC3)ncc1Cl (stereo not shown) [Example 891, 5-Chloro-N*4*-(2-methoxy-phenyl)-N*2*-[7-(4-methyl-piperazin-1-yl)-6,7,8,9-tetrahydro-5H-benzocyclohepten-2-yl]-pyrimidine-2,4-diamine] | < 100 | – | 1000 to 10000
CN1CCN(C2CCc3ccc(Nc4ncc(Cl)c(N[C@H]5[C@@H](C(N)=O)[C@@H]6C=C[C@H]5C6)n4)cc3CC2)CC1 (stereo partly drawn) [Example 892, (1S,2S,3R,4R)-3-{5-Chloro-2-[7-(4-methyl-piperazin-1-yl)-6,7,8,9-tetrahydro-5H-benzocyclohepten-2-ylamino]-pyrimidin-4-ylamino}-bicyclo[2.2.1]hept-5-ene-2-carboxylic acid amide] | < 100 | – | 1000 to 10000
COc1cc(N2CCOCC2)ccc1Nc1nc(Nc2ccc3c(c2OC)CCC(N2CCOCC2)CC3)ncc1Cl (stereo not shown) [Example 894, 5-Chloro-N*4*-(2-methoxy-4-morpholin-4-yl-phenyl)-N*2*-(1-methoxy-7-morpholin-4-yl-6,7,8,9-tetrahydro-5H-benzocyclohepten-2-yl)-pyrimidine-2,4-diamine] | < 100 | – | > 10000
COCCNC1CCc2cc(Nc3ncc(Cl)c(N[C@@H]4CCCC[C@H]4NS(C)(=O)=O)n3)c(OC)cc2CC1 (stereo partly drawn) [Example 895, N-((1R,2R)-2-{5-Chloro-2-[3-methoxy-7-(2-methoxy-ethylamino)-6,7,8,9-tetrahydro-5H-benzocyclohepten-2-ylamino]-pyrimidin-4-ylamino}-cyclohexyl)-methanesulfonamide] | < 100 | – | > 10000
COCCNC1CCc2cc(Nc3ncc(Cl)c(N[C@@H]4CCCC[C@H]4NS(C)(=O)=O)n3)c(OC)cc2CC1 (stereo partly drawn) [Example 896, N-((1R,2R)-2-{5-Chloro-2-[3-methoxy-7-(2-methoxy-ethylamino)-6,7,8,9-tetrahydro-5H-benzocyclohepten-2-ylamino]-pyrimidin-4-ylamino}-cyclohexyl)-methanesulfonamide] | < 100 | – | > 10000
COc1c(Nc2ncc(Cl)c(Nc3ccccc3S(=O)(=O)N3CCCC3)n2)ccc2c1CCC(N1CCOCC1)CC2 (stereo not shown) [Example 900, 5-Chloro-N*2*-(1-methoxy-7-morpholin-4-yl-6,7,8,9-tetrahydro-5H-benzocyclohepten-2-yl)-N*4*-[2-(pyrrolidine-1-sulfonyl)-phenyl]-pyrimidine-2,4-diamine] | < 100 | – | 1000 to 10000
COc1c(Nc2ncc(Cl)c(Nc3ccccc3-n3cccn3)n2)ccc2c1CCC(N1CCOCC1)CC2 (stereo not shown) [Example 901, 5-Chloro-N*2*-(1-methoxy-7-morpholin-4-yl-6,7,8,9-tetrahydro-5H-benzocyclohepten-2-yl)-N*4*-(2-pyrazol-1-yl-phenyl)-pyrimidine-2,4-diamine] | < 100 | – | 1000 to 10000
COc1c(Nc2ncc(Cl)c(N[C@H]3[C@@H](C(N)=O)[C@@H]4C=C[C@H]3C4)n2)ccc2c1CCC(N1CCCC(O)C1)CC2 (stereo partly drawn) [Example 909, (1S,2S,3R,4R)-3-{5-Chloro-2-[7-(3-hydroxy-piperidin-1-yl)-1-methoxy-6,7,8,9-tetrahydro-5H-benzocyclohepten-2-ylamino]-pyrimidin-4-ylamino}-bicyclo[2.2.1]hept-5-ene-2-carboxylic acid amide] | < 100 | – | 1000 to 10000
COc1c(Nc2ncc(Cl)c(N[C@H]3[C@@H](C(N)=O)[C@@H]4C=C[C@H]3C4)n2)ccc2c1CCC(N1CCCC(O)C1)CC2 (stereo partly drawn) [Example 910, (1S,2S,3R,4R)-3-{5-Chloro-2-[7-(3-hydroxy-piperidin-1-yl)-1-methoxy-6,7,8,9-tetrahydro-5H-benzocyclohepten-2-ylamino]-pyrimidin-4-ylamino}-bicyclo[2.2.1]hept-5-ene-2-carboxylic acid amide] | < 100 | – | > 10000
COc1c(Nc2ncc(Cl)c(Nc3ccccc3S(=O)(=O)N(C)C)n2)ccc2c1CCC(N1CCN(C)CC1)CC2 (stereo not shown) [Example 911, 2-{5-Chloro-2-[1-methoxy-7-(4-methyl-piperazin-1-yl)-6,7,8,9-tetrahydro-5H-benzocyclohepten-2-ylamino]-pyrimidin-4-ylamino}-N,N-dimethyl-benzenesulfonamide] | < 100 | – | 1000 to 10000
CNC(=O)c1ccccc1Nc1nc(Nc2ccc3c(c2)CCCC(=O)N3CCOC)ncc1C(F)(F)F [Example 921, 2-{2-[1-(2-Methoxyethyl)-2-oxo-2,3,4,5-tetrahydro-1H-benzo[b]azepin-7-ylamino]-5-trifluoromethylpyrimidin-4-ylamino}-N-methylbenzamide] | < 100 | – | < 100
CNC(=O)c1cccc(C)c1Nc1nc(Nc2ccc3c(c2)CCN(CCOC)CC3)ncc1C(F)(F)F [Example 922, 2-{2-[3-(2-Methoxyethyl)-2,3,4,5-tetrahydro-1H-benzo[d]azepin-7-ylamino]-5-trifluoromethylpyrimidin-4-ylamino}-3,N-dimethylbenzamide] | 100 to 1000 | – | < 100
CNC(=O)c1ccccc1Nc1nc(Nc2ccc3c(c2)CCC(N2CCOCC2)CC3)ncc1C(F)(F)F (stereo not shown) [Example 923, N-Methyl-2-[2-(7-morpholin-4-yl-6,7,8,9-tetrahydro-5H-benzocyclohepten-2-ylamino)-5-trifluoromethyl-pyrimidin-4-ylamino]-benzamide] | < 100 | – | < 100
CCN1CCc2ccc(Nc3ncc(C(F)(F)F)c(Nc4ccc(N5CCOCC5)cc4OC)n3)cc2CC1 [Example 924, N(2)-(3-Ethyl-2,3,4,5-tetrahydro-1H-benzo[d]azepin-7-yl)-N(4)-(2-methoxy-4-morpholin-4-yl-phenyl)-5-trifluoromethylpyrimidine-2,4-diamine] | < 100 | – | 100 to 1000
CNC(=O)c1cccc(F)c1Nc1nc(Nc2ccc3c(c2)N(CCOC)C(=O)CCC3)ncc1C(F)(F)F [Example 926, 3-Fluoro-2-{2-[1-(2-methoxy-ethyl)-2-oxo-2,3,4,5-tetrahydro-1H-benzo[b]azepin-8-ylamino]-5-trifluoromethyl-pyrimidin-4-ylamino}-N-methyl-benzamide] | < 100 | – | < 100
